Data reported in patent US4127572A, “Method of using 2(1H)-quinazolinethiones” (The Dow Chemical Company, priority 1978, dated 1978).

Assays:
[1] = tested on: stress induced rise of serum corticosteroid levels; test: Block of stress induced rise of serum corticosteroid levels in rats; assay type: in vivo; settings: 10 mg/kg intraperitoneal, stressed male rats; values less than 1.0 indicative of activity
Method: See British Medical Journal, 1971(2), p. 310-313. Corticosteroid levels were compared between stressed male rats pretreated with 10 mg/kg given by intraperitoneal injection to corticosteroid levels of stressed male rats pretreated with saline. The results were expressed as a ratio with values less than 1.0 indicative of activity. The compound 6-chloro-3,4-dihydro-4-hydroxy-3-(3-(4-morpholinyl)propyl)-4-phenyl-2(1H)- quinazolinethione (Example 12) gave a value of 0.12.

reserpine-induced ptosis = test: Protection against reserpine-induced ptosis in mice; assay type: in vivo; settings: 60 mg/kg intraperitoneal, 30 minutes before 2.5 mg/kg reserpine subcutaneous, graded after 45 minutes
Method: A similar group of mice serving as controls were injected only with the carrier. After 30 minutes, both groups of mice were injected subcutaneously with 2.5 mg/kg of reserpine. […] Animals injected with the benzotriazepine compound were graded after 45 minutes on the following basis: no ptosis = 0, partial ptosis = 1, complete ptosis = 2.

[2] = tested on: serotonin uptake in synaptosome preparations; test: Uptake of serotonin in rat forebrain synaptosome preparations; assay type: biochemical, rats; settings: 10 μg/ml, 37° C., rat forebrain synaptosomes, versus saline control; low values indicate activity
Method: (§1) Antidepressant activity may also be illustrated in vitro by measuring the uptake of the neurotransmittors norepinephrine and serotonin in synaptosome preparations prepared from the forebrains of rats. The synaptosome preparation is incubated at 37° C. with radioactive neurotransmittor and the test compound at a concentration of 10 μg/ml. The synaptosome are isolated and the uptake of labelled neurotransmittor measured by liquid scintillation spectrometry using standard techniques. Percent inhibiton of uptake is determined by comparing the radioactivity taken in the synaptosome preparation with that of a similarly incubated saline control. Low values indicate activity.

[3] = tested on: norepinephrine uptake in synaptosome preparations; test: Uptake of norepinephrine in rat forebrain synaptosome preparations; assay type: biochemical, rats; settings: 10 μg/ml, 37° C., rat forebrain synaptosomes, versus saline control; low values indicate activity
Method: as §1

With `OC1(c2ccccc2)c2cc(Cl)ccc2NC(=S)N1CCCN1CCOCC1` (centres unmarked) [Example 12, 6-chloro-3,4-dihydro-4-hydroxy-3-(3-(4-morpholinyl)propyl)-4-phenyl-2(1H)-quinazolinethione] the “ratio of corticosteroid levels, stressed rats pretreated with compound to stressed rats pretreated with saline” value [1] was 0.12.

With “6-chloro-3-(3-dimethylamino)propyl-3,4-dihydro-4-hydroxy-4-phenyl-2(1H)-quinazolinethione [Example 7]” the “sum of ptosis grades for the four test mice (no ptosis = 0, partial = 1, complete = 2; out of a possible 8)” value (reserpine-induced ptosis; controls 8) was 4 and the “protection against reserpine-induced ptosis” value (reserpine-induced ptosis; four mice) was 50%.

For `CCN(CC)CCN1C(=S)Nc2ccc(Cl)cc2C1(O)c1ccccc1` (centres unmarked) [Example 8], the “inhibition of seratonin uptake” value [2] was 7% and the “norepinephrine uptake relative to saline control” value [3] was 3%.
